Laboratory results as given in US20060130172A1, “Gene encoding resistance to acetolactate synthase-inhibiting herbicides” (priority 2003, published 2006).

What was measured:
S-AMACH smooth pigweed = experiment: Greenhouse screen of ALS-inhibiting herbicides on susceptible smooth pigweed biotype; type: in vivo, Amaranthus hybridus L.; details: 3 WAT; for Biomass Reduction: compared to untreated plant biomass; for Biomass: plant dry weight; for Visual Control: scale 0-99%
Description: (§1) Seeds from a smooth pigweed (Aniaranthus hybridus L.) population (R11-AMACH) were collected from a field in southeastern Pennsylvania where extreme ALS-inhibitor herbicide selection pressure was imposed over a several year period within continuous soybean production. R11-AMACH was selected naturally with ALS-inhibiting herbicides representative of the SU, IMI, and TP herbicide chemistries.
(§2) To establish levels and patterns of ALS resistance, R11-AMACH and an ALS susceptible smooth pigweed biotype (S-AMACH) were screened in the greenhouse with various rates of the ALS-inhibiting herbicides, chlorimuron (SU), thifensulfuron (SU), imazethapyr (IMI), pyrithiobac (POB), and cloransulam-methyl (TP). Rates evaluated were based on a log10 scale that included 0, 1/100×, 1/10×, 1×, 10×, and 100×, where 1× corresponds to the normal use rate in the field. R11-AMACH responded differently to the rate increase as compared to S-AMACH. […] Visual control, height, biomass, and biomass reduction are presented separately for chlorimuron (Table 3), thifensulfuron (Table 4), imazethapyr (Table 5), pyrithiobac (Table 6), and cloransulam (Table 7). Evaluations and measurements were recorded 3 weeks after herbicide treatment (WAT). Visual control was based on a scale of 0-99%, where 0% represents no control and 99% represents complete control. Biomass represents plant dry weights recorded several days after plants were harvested. Biomass reduction was calculated based on the amount of biomass reduced by herbicide treatment compared to the untreated plant biomass.

R11-AMACH smooth pigweed = experiment: Greenhouse screen of ALS-inhibiting herbicides on resistant smooth pigweed biotype; type: in vivo, Amaranthus hybridus L.; details: 3 WAT; for Biomass Reduction: compared to untreated plant biomass; for Biomass: plant dry weight; for Visual Control: scale 0-99%
Description: as §1, §2

In the case of `COc1nc(C)nc(NC(=O)NS(=O)(=O)c2ccsc2C(=O)O)n1` [thifensulfuron, 3-[[[[(4-methoxy-6-methyl-1,3,5-triazin-2-yl)amino]carbonyl]-amino]sulfonyl]-2-thiophenecarboxylic acid], the Height (S-AMACH smooth pigweed; rate 1/10×) is reported as 11.0 cm, the “Biomass Reduction” value (S-AMACH smooth pigweed; rate 1/10×) is reported as 75.2% and the Biomass (S-AMACH smooth pigweed; rate 1/10×) is reported as 0.85 g. The “Visual Control” value (S-AMACH smooth pigweed; rate 1/10×) was 47%, the Height (S-AMACH smooth pigweed; rate 1/100×) was 25.0 cm and the “Biomass Reduction” value (S-AMACH smooth pigweed; rate 1/100×) was 48.7%. The Biomass (S-AMACH smooth pigweed; rate 1/100×) was 1.76 g, the “Visual Control” value (S-AMACH smooth pigweed; rate 1/100×) was 22% and the “Visual Control” value (S-AMACH smooth pigweed; rate 1× (normal use rate)) was 98%. For the same molecule, the Height (S-AMACH smooth pigweed; rate 1×) was 2.0 cm, the “Biomass Reduction” value (S-AMACH smooth pigweed; rate 1×) was 98.0% and the Biomass (S-AMACH smooth pigweed; rate 1×) was 0.07 g. The Height (S-AMACH smooth pigweed; rate 10×) was 0.3 cm, the “Biomass Reduction” value (S-AMACH smooth pigweed; rate 10×) was 98.8% and the Biomass (S-AMACH smooth pigweed; rate 10×) was 0.04 g. For the same molecule, the “Visual Control” value (S-AMACH smooth pigweed; rate 10×) was 99%, the Height (S-AMACH smooth pigweed; rate 100×) was 0.5 cm and the “Biomass Reduction” value (S-AMACH smooth pigweed; rate 100×) was 99.1%. The Biomass (S-AMACH smooth pigweed; rate 100×) was 0.03 g, the “Visual Control” value (S-AMACH smooth pigweed; rate 100×) was 99% and the Height (R11-AMACH smooth pigweed; rate 1/10×) was 32.5 cm. For the same molecule, the “Biomass Reduction” value (R11-AMACH smooth pigweed; rate 1/10×) was −17.1%, the Biomass (R11-AMACH smooth pigweed; rate 1/10×) was 4.45 g and the “Visual Control” value (R11-AMACH smooth pigweed; rate 1/10×) was 9%. The “Visual Control” value (R11-AMACH smooth pigweed; rate 1/100× (1× = normal use rate in the field)) was 4%, the Height (R11-AMACH smooth pigweed; rate 1/100×) was 36.0 cm and the “Biomass Reduction” value (R11-AMACH smooth pigweed; rate 1/100×) was −10.8%. For the same molecule, the Biomass (R11-AMACH smooth pigweed; rate 1/100×) was 4.21 g, the “Visual Control” value (R11-AMACH smooth pigweed; rate 1× (normal use rate)) was 22% and the Height (R11-AMACH smooth pigweed; rate 1×) was 23.0 cm. For the same molecule, the “Biomass Reduction” value (R11-AMACH smooth pigweed; rate 1×) was 8.4%, the Biomass (R11-AMACH smooth pigweed; rate 1×) was 3.48 g and the Height (R11-AMACH smooth pigweed; rate 10×) was 15.8 cm. The “Biomass Reduction” value (R11-AMACH smooth pigweed; rate 10×) was 40.8%, the Biomass (R11-AMACH smooth pigweed; rate 10×) was 2.25 g and the “Visual Control” value (R11-AMACH smooth pigweed; rate 10×) was 38%. The Height (R11-AMACH smooth pigweed; rate 100×) was 6.8 cm, the “Biomass Reduction” value (R11-AMACH smooth pigweed; rate 100×) was 84.7% and the Biomass (R11-AMACH smooth pigweed; rate 100×) was 0.58 g. For the same molecule, the “Visual Control” value (R11-AMACH smooth pigweed; rate 100×) was 64%.
